From patent US4217355A, “Amide therapeutic agents” (Pfizer Inc., priority 1978, dated 1980)

test system: carrageenin-induced edema in the hind paw; experiment: carrageenin-induced rat food edema test (inhibition of edema formation in the hind paw); format: in vivo, male albino rats; conditions: rat, oral, 1.0 mg./kg.
Protocol: A. Winter et al., Proc. Soc. Exp. Biol. Med., Vol. 111, p.
A. Winter et al., as earlier reported in the Proceedings of the Society of Experimental Biology and Medicine, Vol. 111, p. 544 (1962). In this test, anti-inflammatory activity is determined as the percent inhibition of edema formation in the hind paw of male albino rats (weighing 150-190 g.) in response to a sub-plantar injection of carrageenin. The carrageenin is injected as a 1% aqueous suspension (0.05 ml.) one hour after oral administration of the drug, which is normally given in the form of an aqueous solution. Edema formation is then assessed three hours after the carrageenin injection by measuring the volume of the injected paw initially as well as at the three-hour mark. The increase in volume three hours after carrageenin injection constitutes the individual response.
The following N-(2-thiazolyl)amides were tested for anti-inflammatory activity in rats, using the standard carrageen-ininduced rat food edema test, according to the procedure essentially described by C. A. Winter et al., as first reported in the Proceedings of the Society for Experimental Biology and Medicine, Vol. 111, p. 544 (1962). […]

Structure (SMILES)	% Inhibition of edema formation (swelling)
O=C(CNCc1ccccc1)Nc1nccs1 [X=H, R1=H, R2=benzyl, N-(2-thiazolyl)-α-benzylaminoacetamide]	35%
Cl.O=C(CNCc1ccccc1)Nc1nccs1 [N-(2-thiazolyl)-α-benzylaminoacetamide hydrochloride]	35%

same assay, conditions: rat, oral, 3.3 mg./kg.

Structure (SMILES)	% Inhibition of edema formation
Cl.O=C(CNCc1ccccc1)Nc1nccs1 [N-(2-thiazolyl)-α-benzylaminoacetamide hydrochloride]	47%

same assay, conditions: rat, oral, 10 mg./kg.

Structure (SMILES)	% Inhibition of edema formation
Cl.O=C(CNCc1ccccc1)Nc1nccs1 [N-(2-thiazolyl)-α-benzylaminoacetamide hydrochloride]	54%

same assay, conditions: rat, oral, 33 mg./kg., three hours after carrageenin injection

Structure (SMILES)	% Inhibition of edema formation
O=C(Nc1nccs1)C1CCCN1 (stereo not shown) [X=H, R=2-pyrrolidinyl, N-(2-thiazolyl)pyrrolidine-2-carboxamide]	48%
CNCC(=O)Nc1nccs1 [X=H, R1=H, R2=methyl, N-(2-thiazolyl)-α-methylaminoacetamide]	54%
O=C(CNCCc1ccccc1)Nc1nccs1 [X=H, R1=H, R2=β-phenylethyl, N-(2-thiazolyl)-α-(β-phenylethylamino)acetamide]	53%
O=C(CNCc1ccc(F)cc1)Nc1nccs1 [X=H, R1=H, R2=p-fluorobenzyl, N-(2-thiazolyl)-α-(p-fluorobenzylamino)acetamide]	48%
O=C(CNCc1ccccc1)Nc1nccs1 [X=H, R1=H, R2=benzyl, N-(2-thiazolyl)-α-benzylaminoacetamide]	52%
O=C(Nc1nccs1)C1CCCCN1 (stereo not shown) [X=H, R=2-piperidyl, N-(2-thiazolyl)piperidine-2-carboxamide]	55%
CNCC(=O)Nc1nc(C)cs1 [X=CH3, R1=H, R2=methyl, N-(4-methyl-2-thiazolyl)-α-methylaminoacetamide]	53%

same assay, conditions: rats, tested orally

Structure (SMILES)	oral dose levels at which the non-steroidal therapeutic effect is exhibited
O=C(CNCc1ccccc1)Nc1nccs1 [X=H, R1=H, R2=benzyl, N-(2-thiazolyl)-α-benzylaminoacetamide]	0.33 to 33 mg/kg

test system: inflammation in adrenalectomized animals; experiment: anti-inflammatory activity in adrenalectomized animals; format: in vivo, rats; conditions: not given
From the text: As previously indicated, the N-(2-thiazolyl)amide compounds of the present invention are all readily adapted to therapeutic use as anti-inflammatory agents and as immunoregulators, particularly in view of their ability to reduce the swelling and relieve the pain caused by arthritic and other inflammatory disorders that are normally associated with such basic ailments as rheumatoid arthritis and the like. […] A. Winter et al., Proc. Soc. Exp. Biol. Med., Vol. 111, p.

Structure (SMILES)	anti-inflammatory activity in adrenalectomized animals
O=C(CNCc1ccccc1)Nc1nccs1 [X=H, R1=H, R2=benzyl, N-(2-thiazolyl)-α-benzylaminoacetamide]	retaining its extremely potent anti-inflammatory activity in adrenalectomized animals to a significantly high degree

test system: murine thymus cells; experiment: lymphocyte stimulation assay (LSA), in vitro lymphocyte proliferation of murine thymus cells cultured in the presence of Concanavalin A; format: cell-based, male C57B1/6 mice; conditions: in vitro; Con A present; 48 hours at 37° C.; score at drug level with maximum activity
From the text: On the other hand, the activity of the compounds of the present invention, as immunoregulator agents, is based on a study of their ability to stimulate, in vitro, the lymphocyte proliferation of murine thymus cells cultured in the presence of Concanavalin A (Con A) by employing the general evaluation procedure of V. J. Merluzzi et al., as described in the Journal of Clinical and Experimental Immunology, Vol. 22, p. 486 (1975).
486 (1975). The cells were derived from male C57B1/6 mice of from 6-8 weeks age, purchased from the Jackson Laboratories of Bar Harbor, Maine and the Con A was obtained from Sigma Chemicals of St. Louis, Missouri. Each cell culture (consisting of 0.10 ml. thymus cells stock solution, 0.05 ml. of Con A stock solution and 0.05 ml. of drug solution) was performed in quadruplicate and cellular proliferation was measured, after 48 hours of incubation at 37° C., by pulsing each culture with ^3 H-thymidine (0.01 ml. of specific activity 1.9 C/mM, obtained from Schwarz-Mann, Inc. of Orangeburg, N.Y.) and then determining the incorporation of ^3 H-thymidine into cellular desoxyribonucleic acid (DNA) by an assessment of radioactivity using a liquid scintillation counter.

Structure (SMILES)	LSA Activity
O=C(Nc1nccs1)C1CCCN1 (stereo not shown) [X=H, R=2-pyrrolidinyl, N-(2-thiazolyl)pyrrolidine-2-carboxamide]	+++ (those having an activity greater than levamisole (27,000±1,000 cpm) were scored as +++)
CNCC(=O)Nc1nccs1 [X=H, R1=H, R2=methyl, N-(2-thiazolyl)-α-methylaminoacetamide]	+++ (those having an activity greater than levamisole (27,000±1,000 cpm) were scored as +++)
O=C(CNCCc1ccccc1)Nc1nccs1 [X=H, R1=H, R2=β-phenylethyl, N-(2-thiazolyl)-α-(β-phenylethylamino)acetamide]	++ (those equal to levamisole (22,000±900 cpm) were scored as ++)
C=CCNCC(=O)Nc1nccs1 [X=H, R1=H, R2=allyl, N-(2-thiazolyl)-α-allylaminoacetamide]	++ (those equal to levamisole (22,000±900 cpm) were scored as ++)
O=C(CNCc1ccco1)Nc1nccs1 [X=H, R1=H, R2=2-furfuryl, N-(2-thiazolyl)-α-(2-furfurylamino)acetamide]	++ (those equal to levamisole (22,000±900 cpm) were scored as ++)
CNC(C)C(=O)Nc1nccs1 (stereo not drawn) [X=H, R1=CH3, R2=methyl, N-(2-thiazolyl)-α-methylaminopropionamide]	+++ (those having an activity greater than levamisole (27,000±1,000 cpm) were scored as +++)
O=C(CNCc1ccc(F)cc1)Nc1nccs1 [X=H, R1=H, R2=p-fluorobenzyl, N-(2-thiazolyl)-α-(p-fluorobenzylamino)acetamide]	+++ (those having an activity greater than levamisole (27,000±1,000 cpm) were scored as +++)
O=C(CNCc1ccccc1)Nc1nccs1 [X=H, R1=H, R2=benzyl, N-(2-thiazolyl)-α-benzylaminoacetamide]	+++ (those having an activity greater than levamisole (27,000±1,000 cpm) were scored as +++)
O=C(CNCc1ccc2c(c1)OCO2)Nc1nccs1 [X=H, R1=H, R2=3,4-methylenedioxybenzyl, N-(2-thiazolyl)-α-(3,4-methylenedioxybenzylamino)acetamide]	++ (those equal to levamisole (22,000±900 cpm) were scored as ++)
O=C(Nc1nccs1)C1CCCCN1 (stereo not shown) [X=H, R=2-piperidyl, N-(2-thiazolyl)piperidine-2-carboxamide]	+++ (those having an activity greater than levamisole (27,000±1,000 cpm) were scored as +++)
CNCC(=O)Nc1nc(C)cs1 [X=CH3, R1=H, R2=methyl, N-(4-methyl-2-thiazolyl)-α-methylaminoacetamide]	+++ (those having an activity greater than levamisole (27,000±1,000 cpm) were scored as +++)
Cc1csc(NC(=O)C(N)Cc2ccccc2)n1 (stereo not drawn) [X=CH3, R1=C6 H5 CH2, R2=hydrogen, N-(4-methyl-2-thiazolyl)-α-amino-β-phenylpropionamide]	+++ (those having an activity greater than levamisole (27,000±1,000 cpm) were scored as +++)
O=C(CNC1CCCCCCC1)Nc1nccs1 [X=H, R1=H, R2=cyclooctyl, N-(2-thiazolyl)-α-cyclooctylaminoacetamide]	++ (those equal to levamisole (22,000±900 cpm) were scored as ++)
CCCNCC(=O)Nc1nccs1 [X=H, R1=H, R2=n-propyl, N-(2-thiazolyl)-α-(n-propylamino)acetamide]	++ (those equal to levamisole (22,000±900 cpm) were scored as ++)

same assay, conditions: standard compound; Con A present; 48 hours at 37° C.

Structure (SMILES)	3H-thymidine incorporated (average counts per minute)
c1ccc([C@H]2CN3CCSC3=N2)cc1 [levamisole, reference compound]	22,000±900 cpm
